Assay results: patent US20100010078A1, “METHODS OF TREATING ANDROGEN DEPENDENT PROSTATE CANCER BY ADMINISTERING AN ACTIVE PHARMACEUTICAL INGREDIENT BEING FISETIN, 3,3',4',7-TETRAHYDROXYFLAVONE OR A DERIVATIVE THEREOF, IN AN ORAL, TRANSDERMAL OR TOPICAL DOSAGE FORM” (priority 2008, published 2010)
Peptide text beside a SMILES is read from it. * marks the point of attachment. Cbz = O=C(OCc1ccccc1)*; CH2F = FC*

Columns and labels:
caspase-3 and -7 = experiment: Immunofluorescence staining for active caspase-3 and -7; type: cell-based, human; settings: LNCaP, Z-VAD-FMK 40 μM for 2 h before fisetin 40 μM
Method: Immunofluorescence staining for active caspase-3 and -7. LNCaP cells were incubated with 40 μM concentration of the general caspase inhibitor Z-VAD-FMK for 2 h, followed by the addition of fisetin (40 μM; 48 h) and then harvested. ICT's Magic Red™ substrate-based MR-Caspase assay kit was used for the immunofluorescence staining for caspase-3 and -7. This kit utilizes the fluorophore, cresyl violet. As the 4 amino acid sequence, aspartylglutamylalanylaspartic acid (DEVD) is the optimal sequence for caspase -3 as well as -7, it was coupled to cresyl violet to create the caspase 3/7 substrate, MR-(DEVD)2. […] Following enzymatic hydrolysis at one or both of the aspartic acid amide linkage sites, the mono and non-substituted cresyl violet fluorophores fluoresce red and fluorescence photographs were obtained at 510-560 nm excitation and 610 nm emission.

caspase-3, -8 and -9 = experiment: Western blot, active caspase-3, -8 and -9 in LNCaP cells; type: cell-based, human; settings: Z-VAD-FMK 40 μM for 2 h before fisetin (10-60 μM), compared to fisetin treatment
Method: Protein extraction and western blotting. Following the treatment of LNCaP cells with fisetin (10-60 μM; 48 h), the media was aspirated, the cells were washed with cold PBS (pH 7.4), and ice-cold lysis buffer (50 mM Tris-HCl, 150 mM NaCl, 1 mM EGTA, 1 mM EDTA, 20 mM NaF, 100 mM Na3VO4, 0.5% NP-40, 1% Triton X-100, 1 mM PMSF (pH 7.4)) with freshly added protease inhibitor cocktail (Protease Inhibitor Cocktail Set III, Calbiochem, La Jolla, Calif.) over ice for 30 min. The cells were scraped and the lysate was collected in a microfuge tube and passed through a needle to break up the cell aggregates. […]
For western blotting, 30-50 μg protein was resolved over 8-12% polyacrylamide gels and transferred to a nitrocellulose membrane. The blot was blocked in blocking buffer (5% nonfat dry milk/1% Tween 20; in 20 mM TBS, pH 7.6) for 1 hr at room temperature, incubated with appropriate monoclonal or polyclonal primary antibody in blocking buffer for 1.5 h to overnight at 4° C., followed by incubation with anti-mouse or anti-rabbit secondary antibody horseradish peroxidase conjugate obtained from Amersham Life Science Inc. and detected by chemiluminescence and autoradiography using XAR-5 film obtained from Eastman Kodak Co. (Rochester, N.Y., USA). […]

For `COC(=O)C[C@H](NC(=O)[C@H](C)NC(=O)[C@@H](NC(=O)OCc1ccccc1)C(C)C)C(=O)CF` [Z-VAD-FMK, reference compound] (Cbz-Val-Ala-Asp(OMe)-CH2F), the “immunofluorescence staining of active caspase-3 & -7” value (caspase-3 and -7) was “significant decrease” and the “protein expression of active caspase-3, -8 and -9” value (caspase-3, -8 and -9) was “significant decrease”.
